# Where “and” joins values, the source holds several entries; their conditions need not be identical. Equal values may be shown once. Read-outs that look alike come from different tables or passages of the source.
# Tests used:
# [1] = background statement; cited from earlier work
# tumor = settings: background statement; cited from earlier work
# [2] = tested on: A2780S human ovarian cells; test: cells; assay type: cell-based
# Method: (§1) 10'-Desmethoxystreptonigrin was also tested for cytotoxicity in vitro against human tumor cell lines according to the method of Catino et al., "A microtitre cytotoxicity assay useful for the discovery of fermentation derived antitumor agents", Cancer Chemother., Pharmacol. 15: 240-243 (1985). Modification of the dye employed therein was made according to Scudiero et al., "Evaluation of a soluble tetrazolium/formazan assay for cell growth and drug sensitivity in culture using human and other tumor cell lines," Cancer Research 48:4827-4833,1 (1988). The assays were performed in triplicate against human ovarian (A2780DDP and A2780S) and colon (HCT-116, HCT/VM46 and HCT/VP35) tumor cell lines. Such cell lines are, for example, described by Long et al., "The effects of mitomycin on human colon carcinoma cells," J. Nat. Cancer Inst. 73: 787-792 (1984) (HCT-116) and Masuda et al., "Increased DNA repair as a mechanism of acquired resistance to cis-diamminedichloroplatinum (II) in human ovarian cancer cell lines," Cancer Research 48: 5713-5716 (1988) (A2780 ).
# P388 murine leukemia = test: In vivo tests in mice, intraperitoneally implanted P388 murine leukemia model; settings: intraperitoneally implanted P388, nontoxic levels
# Excerpt: ^+ In vivo tests in mice using the intraperitoneally implanted P388
# lifespan compared to control groups at nontoxic levels of
# 10desmethoxystreptonigrin.
# [3] = tested on: HCT-116 human colon cells; test: In vitro cytotoxicity vs. human tumor cell lines; assay type: cell-based; settings: in triplicate, each printed
# Method: as §1
# [4] = tested on: HCT/VP35 human colon cells; test: In vitro cytotoxicity vs. human tumor cell lines; assay type: cell-based; settings: in triplicate, each printed
# Method: as §1
# [5] = tested on: HCT/VM46 human colon cells; test: In vitro cytotoxicity vs. human tumor cell lines; assay type: cell-based; settings: HCT/VM46, resistant to teniposide, in triplicate, each printed
# Method: as §1
# [6] = target: protein-cysteine farnesyltransferase; test: Inhibition of farnesylation of p21 ras protein; assay type: biochemical; settings: assay of Manne et al.; read-out: IC50 in inhibiting the farnesylation of p21 ras protein
# Streptococcus faecalis = test: Antibacterial activity in vitro, agar dilution MIC; assay type: cell-based; settings: Enterococcus faecalis, 37° C., 18 hours, read-out: Minimum Inhibitory Concentration (MIC)
# Method: (§2) The following methodology was used to determine the minimum inhibitory concentration (hereinafter referred to as MIC) of 10'-desmethoxystreptonigrin against bacteria. The test organisms were grown in 20 ml of Antiobiotic Assay Broth (Difco) by inoculating the broth (in tubes) with a loopful of the organism from a BHI (Difco) agar slant. The inoculated tubes were incubated at 37° C. for 18 to 24 hours. These cultures were assumed to contain 10^9 colony forming units (CFU) per ml. The cultures were diluted 1:100 to give a final inoculum level of 10^7 CFU; dilutions were made with Yeast-Beef Broth (Difco). The test compound was dissolved in an appropriate diluent at a concentration of 1,000 μg/ml. Two-fold dilutions were made in Yeast-Beef Broth (Difco), resulting in a range from 1000 μg/ml to 0.5 μg/ml. A 1.5 ml portion of each dilution was placed into individual petri dishes to which 13.5 ml of K-10 agar was added. The composition of K-10 agar is:
# (§3) The medium was sterilized at 121° C. for 15 minutes at 15 lbs. psi.
# (§4) The final drug concentration in the agar ranged from 100 μg/mL to 0.05 μg/mL. Organism growth control plates containing agar only were prepared and inoculated before and after the test plates. The organisms were applied to the agar surface of each plate with a Denly Multipoint Inoculator (which delivers approximately 0.001 mL of each inoculum) resulting in a final inoculum of 10^4 CFU on the agar plate.
# (§5) The plates were incubated at 37° C. for 18 hours and the MICs determined. The MIC is the lowest concentration of compound inhibiting growth of the organism.
# Enterobacter cloacae = test: Antibacterial activity in vitro, agar dilution MIC; assay type: cell-based; settings: SC8236, strain SC# 8236, 37° C., 18 hours, read-out: Minimum Inhibitory Concentration (MIC)
# Method: as §2, §3, §4, §5
# [7] = tested on: Acinetobacter calcoaceticus; test: Antibacterial activity in vitro, agar dilution MIC; assay type: cell-based; settings: SC8333, strain SC# 8333, 37° C., 18 hours, read-out: Minimum Inhibitory Concentration (MIC)
# Method: as §2, §3, §4, §5
# Pseudomonas aeruginosa = test: Antibacterial activity in vitro, agar dilution MIC; assay type: cell-based; settings: read-out: Minimum Inhibitory Concentration (MIC)
# Method: as §2, §3, §4, §5
# Escherichia coli = test: Antibacterial activity in vitro, agar dilution MIC; assay type: cell-based; settings: 18 hours, read-out: Minimum Inhibitory Concentration (MIC)
# Method: as §2, §3, §4, §5
# Nocardia autotrophica = test: Antibacterial activity in vitro, agar dilution MIC; assay type: cell-based; settings: Pseudonocardia autotrophica, SC8994; strain SC# 8994; 37° C., 18 hours; read-out: Minimum Inhibitory Concentration (MIC)
# Method: as §2, §3, §4, §5
# Bacillus subtilis = test: Antibacterial activity in vitro, agar dilution MIC; assay type: cell-based; settings: SC3777, strain SC# 3777, 37° C., 18 hours, read-out: Minimum Inhibitory Concentration (MIC)
# Method: as §2, §3, §4, §5
# Proteus mirabilis = test: Antibacterial activity in vitro, agar dilution MIC; assay type: cell-based; settings: SC3855, strain SC# 3855, 37° C., 18 hours, read-out: Minimum Inhibitory Concentration (MIC)
# Method: as §2, §3, §4, §5
# Micrococcus luteus = test: Antibacterial activity in vitro, agar dilution MIC; assay type: cell-based; settings: SC2495, strain SC# 2495, 37° C., 18 hours, read-out: Minimum Inhibitory Concentration (MIC)
# Method: as §2, §3, §4, §5
# Klebsiella pneumoniae = test: Antibacterial activity in vitro, agar dilution MIC; assay type: cell-based; settings: 18 hours, read-out: Minimum Inhibitory Concentration (MIC)
# Method: as §2, §3, §4, §5
# Listerella monocytogenes = test: Antibacterial activity in vitro, agar dilution MIC; assay type: cell-based; settings: strain SC# 8523; 37° C., 18 hours; read-out: Minimum Inhibitory Concentration (MIC)
# Method: as §2, §3, §4, §5
# Mycobacterium fortuitum = test: Antibacterial activity in vitro, agar dilution MIC; assay type: cell-based; settings: Mycolicibacterium fortuitum, SC8571; strain SC# 8571; 37° C., 18 hours; read-out: Minimum Inhibitory Concentration (MIC)
# Method: as §2, §3, §4, §5
# Proteus vulgaris = test: Antibacterial activity in vitro, agar dilution MIC; assay type: cell-based; settings: SC9416, strain SC# 9416, 37° C., 18 hours, read-out: Minimum Inhibitory Concentration (MIC)
# Method: as §2, §3, §4, §5
# Enterobacter aerogenes = test: Antibacterial activity in vitro, agar dilution MIC; assay type: cell-based; settings: Klebsiella aerogenes, SC10078; strain SC# 10078; 37° C., 18 hours; read-out: Minimum Inhibitory Concentration (MIC)
# Method: as §2, §3, §4, §5
# Salmonella typhosa = test: Antibacterial activity in vitro, agar dilution MIC; assay type: cell-based; settings: Salmonella enterica, SC1195 / TYPHOSA; strain SC# 1195; 37° C., 18 hours; read-out: Minimum Inhibitory Concentration (MIC)
# Method: as §2, §3, §4, §5
# Serratia marcescens = test: Antibacterial activity in vitro, agar dilution MIC; assay type: cell-based; settings: SC9783, strain SC# 9783, 37° C., 18 hours, read-out: Minimum Inhibitory Concentration (MIC)
# Method: as §2, §3, §4, §5
# Shigella sonnei = test: Antibacterial activity in vitro, agar dilution MIC; assay type: cell-based; settings: SC8449, strain SC# 8449, 37° C., 18 hours, read-out: Minimum Inhibitory Concentration (MIC)
# Method: as §2, §3, §4, §5
# Staphylococcus aureus = test: Antibacterial activity in vitro, agar dilution MIC; assay type: cell-based; settings: 18 hours, read-out: Minimum Inhibitory Concentration (MIC)
# Method: as §2, §3, §4, §5
# Streptococcus agalactiae = test: Antibacterial activity in vitro, agar dilution MIC; assay type: cell-based; settings: 18 hours, read-out: Minimum Inhibitory Concentration (MIC)
# Method: as §2, §3, §4, §5
# Pseudomonas cepacia = test: Antibacterial activity in vitro, agar dilution MIC; assay type: cell-based; settings: Burkholderia cepacia, SC14164; strain SC# 14164; 37° C., 18 hours; read-out: Minimum Inhibitory Concentration (MIC)
# Method: as §2, §3, §4, §5
# Acinetobacter anitratus = test: Antibacterial activity in vitro, agar dilution MIC; assay type: cell-based; settings: Acinetobacter calcoaceticus, SC14207; strain SC# 14207; 37° C., 18 hours; read-out: Minimum Inhibitory Concentration (MIC)
# Method: as §2, §3, §4, §5
smiles,measurement,setting,value
"COC1=C(N)C(=O)c2nc(-c3nc(C(=O)O)c(C)c(-c4ccc(OC)c(OC)c4O)c3N)ccc2C1=O [streptonigrin, 5'-amino-6'-(7-amino-5,-8-dihydro-6-methoxy-5,8-dioxo-2-quinolyl)-4'-(8'-hydroxy-9',10'-dimethoxyphenyl)-3'-methyl-2'-pyridinecarboxylic acid]","toxic effect, for example, in bone marrow depression",[1],significant toxic effect
same,activity as an antitumor antibiotic,tumor,has shown activity as an antitumor antibiotic
"COC1=C(N)C(=O)c2nc(-c3nc(C(=O)O)c(C)c(-c4cccc(OC)c4O)c3N)ccc2C1=O [10'-Desmethoxystreptonigrin, 5'-amino-6'-(7-amino-5,8-dihydro-6-methoxy-5,8-dioxo-2-quinolyl)-4'-(8'-hydroxy-9'-methoxyphenyl)-3'-methyl-2'-pyridinecarboxylic acid]",IC50,"[2]; Homo sapiens, read-out: IC50 cytotoxicity, A2780S, in triplicate, each printed",0.001 µg/mL
same,IC50 cytotoxicity,"[2]; in triplicate, each printed",0.002 µg/mL and < 0.001 µg/mL
same,increase in lifespan compared to control groups,P388 murine leukemia,no statistically significant increase
same,IC50 cytotoxicity,[3]; HCT-116,0.003 µg/mL
same,IC50,"[3]; Homo sapiens, HCT-116, HCT-116",0.006 µg/mL
same,IC50 cytotoxicity,"[4]; HCT/VP35, resistant to etoposide",0.002 µg/mL
same,IC50,"[4]; Homo sapiens, HCT/VP35, HCT/VP35, resistant to etoposide",0.003 µg/mL
same,IC50 cytotoxicity,[5],0.002 µg/mL and < 0.001 µg/mL
same,IC50,[5]; Homo sapiens,0.001 µg/mL
same,IC50,[6],23.5 µM
same,MIC,"Streptococcus faecalis; SC9011, strain SC# 9011",1.6 µg/mL
same,MIC,"Streptococcus faecalis; SC9610, strain SC# 9610",1.6 µg/mL
same,MIC,Enterobacter cloacae,> 100 µg/mL
same,MIC,[7],> 100 µg/mL
same,MIC,"Pseudomonas aeruginosa; SC8329, 18 h",6.3 µg/mL
same,MIC,"Pseudomonas aeruginosa; SC9545, strain SC# 9545, 37° C., 18 hours",1.6 µg/mL
same,MIC,"Escherichia coli; SC8294, strain SC# 8294, 37° C.",3.1 µg/mL
same,MIC,"Escherichia coli; SC10857, strain SC# 10857, 37° C.",0.8 µg/mL
same,MIC,"Escherichia coli; SC10896, strain SC# 10896, 37° C.",0.4 µg/mL
same,MIC,"Escherichia coli; SC10909, strain SC# 10909, 37° C.",< 0.05 µg/mL
same,MIC,"Escherichia coli; SC12864, strain SC# 12864, 37° C.",1.6 µg/mL
same,MIC,Nocardia autotrophica,3.1 µg/mL
same,MIC,Bacillus subtilis,0.2 µg/mL
same,MIC,Proteus mirabilis,3.1 µg/mL
same,MIC,Micrococcus luteus,0.4 µg/mL
same,MIC,"Klebsiella pneumoniae; SC9527, strain SC# 9527, 37° C.",3.1 µg/mL
same,MIC,"Klebsiella pneumoniae; SC10440, strain SC# 10440, 37° C.",3.1 µg/mL
same,MIC,Listerella monocytogenes,1.6 µg/mL
same,MIC,Mycobacterium fortuitum,50 µg/mL
same,MIC,Proteus vulgaris,0.4 µg/mL
same,MIC,Enterobacter aerogenes,25 µg/mL
same,MIC,Salmonella typhosa,1.6 µg/mL
same,MIC,Serratia marcescens,6.3 µg/mL
same,MIC,Shigella sonnei,1.6 µg/mL
same,MIC,"Staphylococcus aureus; SC1276, strain SC# 1276, 37° C.",0.4 µg/mL
same,MIC,"Staphylococcus aureus; SC2399, strain SC# 2399, 37° C.",0.2 µg/mL
same,MIC,"Staphylococcus aureus; SC2400, strain SC# 2400, 37° C.",0.2 µg/mL
same,MIC,"Staphylococcus aureus; SC10165, strain SC# 10165, 37° C.",0.2 µg/mL
same,MIC,"Streptococcus agalactiae; SC9287, strain SC# 9287, 37° C.",1.6 µg/mL
same,MIC,"Streptococcus agalactiae; SC14008, strain SC# 14008, 37° C.",1.6 µg/mL
same,MIC,Pseudomonas cepacia,> 25 µg/mL
same,MIC,Acinetobacter anitratus,3.1 µg/mL
